Laboratory results as given in patent US20200288721A1, “PESTICIDAL COMPOSITION COMPRISING AN OXIME CARBAMATE AND USE THEREOF” (priority 2017, published 2020).

Assay: Stability Test: storage of SL formulations in sealed bottles at 54° C. for 14 days
Format: physicochemical
Conditions: acid at 1% (Table 1) or 1-3% (Table 3) in 24% oxamyl SL
Procedure: (§1) Samples of the compositions summarised in Table 1 above were packaged in commercially available 500 ml fluorinated plastic bottles and the bottles sealed. The bottles were stored at 54° C. for 14 days. Thereafter, the bottles were cooled to room temperature and their appearance assessed. The concentration of the active ingredient, oxamyl, in each bottle was measured.
as §1, with “Table 3” for “Table 1”

Row | SMILES | stabilisation / chemical degradation of the oxamyl active ingredient (in words)
1 | OB(O)O [boric acid] | not effective in stabilising the oxamyl active ingredient
2 | O=P(O)(O)O [phosphoric acid] | significantly reduced the chemical degradation
3 | Cl [hydrochloric acid] | significantly reduced the chemical degradation
4 | CC(=O)O [Acetic acid] | significantly reduced the chemical degradation
5 | O=C(O)CC(O)(CC(=O)O)C(=O)O [citric acid] | significantly reduced the chemical degradation
